Experimental data reported in patent US4910021A, “Targeted enternal delivery system” (priority 1985, dated 1990).
Like-named read-outs stand apart in the source and are kept apart here.

Tests used:
blood glucose = assay: Hypoglycemia effect in rats after oral (coated capsules) or intraperitoneal insulin; type: in vivo, rat (Hebrew University strain male rats); design: AUC (area under the % glucose reduction versus time curve): unit not given beside the values; details: i.p., 4 iu, 15 iu kg^-1, rats
[1] = rectal, dogs, cited from earlier work
rats = details: intrajejunal injection in presence of Cetamacrogol 1000, rats; cited from earlier work

insulin: porcine insulin Leo Neutral 100 iu ml^-1 (Nordisk Gentofte); i.p. 4 iu neutral insulin
AUC (area under the % glucose reduction versus time curve) (blood glucose): 258 | Cmax (maximum % glucose reduction) (blood glucose): 58% | tmax (time of the maximum effect) (blood glucose): 2 h | bioavailability ([1]; before improvement by post-administration of promoter): 19.4% | bioavailability ([1]; with post-administration of promoter (enamine)): 38.2% | hypoglycemia (rats): significant hypoglycemia
